# Key:
# Type in all cases: cell-based, human
# HUVECs = assay: BrdU cell proliferation assay on HUVECs; conditions: after 24 hours of quinagolide treatment, 10^-5 and 10^-7 M
# Description: FIG. 3: Quinagolide effect on EMSCs apoptosis and proliferation. A: Quinagolide concentration-response curve on ectopic EMSCs in both apoptosis (N=1) and proliferation (N=2) assays. B: Effect of two selected quinagolide doses (10^−5 and 10^−7M) on HUVECs (N=1) and ectopic E-MSCs (N=3) apoptosis and proliferation assays (N=2). Data are represented as mean±SD of the indicated number of experiments and normalized to untreated cells (Control). Cells were plated in growth medium at a concentration of 2,500 HUVECs/well and 3,000 E-MSCs/well in a 96-multiwell plate. The day after quinagolide was added to the growth medium at different concentrations after 24 hours. Deoxyribonucleic acid synthesis was detected as incorporation of 5-bromo-2-deoxyuridine (BrdU) into the cellular DNA after 48 hours from cell plaiting, using an enzyme-linked assay kit (Chemicon). Untreated cells were used as control. Data are expressed as the mean±standard deviation (SD) of the media of absorbance of at least three different experiments and normalized to control.
# ectopic E-MSCs = assay: Matrigel transwell invasion assay, ectopic E-MSCs
# Description: FIG. 4: Quinagolide effect on EMSCs invasion. A and B: Representative micrographs (A) and quantification (B) of quinagolide effect (100 nM) on eutopic and ectopic (both ovarian and peritoneal) EMSCs invasion (original magnification: ×100). C: Concentration response effect of quinagolide treated ectopic EMSCs invasion. D and E: Quantification (D) and representative micrographs (E) (original magnification: ×100) of invasion assays performed on ectopic EMSCs (both ovarian and peritoneal), treated with 100 nM quinagolide (Q100 nM), 5 μM spiperone(S) or a combination of quinagolide and spiperone (S+Q100 nM). All invasion data are represented as mean±SD of at least three independent experiments, performed on different EMSC lines, and normalized to untreated cells (CTL). One-way ANova was performed: *=p<0.05 and **=p<0.001 vs CTL. Quinagolide powder (provided by Ferring Pharmaceuticals) was stored at 4° C. and resuspended in dimethylsulphoxide (DMSO) to a stock solution of 1 mM immediately before use. Spiperone powder (Sigma-Aldrich) was resuspended in water to a stock concentration of 1 mM and stored at −20° C. Cabergoline powder (Sigma-Aldrich) was dissolved in DMSO to a stock concentration of 25 mM and stored at −20° C. […] Quinagolide, cabergoline, sorafenib and cabozantinib and were administered for 24 hours during co-culture experiments, while spiperone was added to culture medium 1 h before quinagolide treatment. […] E-MSCs were seeded in triplicate in Matrigel-precoated (100 μg Matrigel/transwell) 8-um pore transwells at a concentration of 50,000 cells per well in 200 μl of RPMI 2% FCS with/without quinagolide at the indicated concentration. To test the D2 antagonist effect, E-MSCs were pre-treated with spiperone (5 μM) for 1 h at 37° C. before cell detachment. After 48 hours, invaded E-MSCs on the bottom side of the transwell were fixed with methanol and stained with crystal violet. At least five pictures per transwell were acquired (original magnification: 100×), and the percentage of transwell area covered by invaded EMSCs was quantitatively measured by ImageJ software.
# AKT = assay: Western blot of AKT and P-AKT in ectopic EMSCs; conditions: 100 nM quinagolide
# Description: FIG. 6: Quinagolide effect on AKT activation. A: Representative western blot analysis and quantification of AKT levels in eutopic and ectopic EMSCs treated for 48 h with 100 nM quinagolide (Q), compared to untreated cells (CTL). B: Representative western blot analysis and quantification of P-AKT levels, normalized to AKT expression, in eutopic and ectopic EMSCs treated for 48 h with 100 nM quinagolide (Q), respect to untreated cells (CTL). C: Representative western blot analysis and quantification of P-AKT levels in HUVECs, ectopic […] basal), and in […] co-culture with HUVECs, treated or not for 24 h with 100 nM quinagolide (Q100 nM). Data are represented as mean±SD of at least two independent experiments, performed on different EMSC lines, and normalized to Vinculin and to untreated cells (CTL). One-way ANOVA was performed: *=p<0.05 and **=p<0.001 vs CTL. Cell pellets were lysed at 4° C. for 15 minutes in RIPA buffer supplemented with protease and phosphatase inhibitors cocktail and PMSF (Sigma-Aldrich). Proteins were quantified using Bradford solution following the manufacturer procedures (Bio-Rad Inc., Berkely, CA, USA) and aliquots of cell lysates containing 50 μg of proteins were run on 4-12% Mini-Protean TGX Stain-Free Gels (Bio-Rad) under reducing conditions and transferred onto PVDF membrane filters using the iBLOT2 system (Life Technologies). […]
smiles,measurement,setting,value
"CCCN1C[C@@H](NS(=O)(=O)N(CC)CC)C[C@@H]2Cc3c(O)cccc3C[C@H]21 [quinagolide, N,N-diethyl-N′-[(3S,4aS,10aR)-6-hydroxy-1-propyl-1,2,3,4,4a,5,10,10a-octahydrobenzo[g]quinolin-3-yl]sulfamide]",proliferation of HUVEC cells,HUVECs,did not show alteration
same,invasion of ectopic E-MSC lines,"ectopic E-MSCs; 100 nM, 48 h, Matrigel, vs untreated",significantly reduced
same,concentration response of invasion reduction,"ectopic E-MSCs; ectopic EMSCs, 48 h (FIG. 4C)",dose-dependent
same,total AKT levels,"AKT; ectopic EMSCs, 48 h (FIG. 6A)",reduced
same,AKT phosphorylation,"AKT; ectopic cell lines, 24 hours (text; legend 48 h)",significant decrease
